Laboratory results published in patent publication US20100285959A1, “HERBICIDAL MIXTURES” (priority 2006, published 2010).

What was measured:
Test in all cases: Test 7 field trial, preemergence
morningglory (IPOSS) = format: in vivo, Ipomoea L. spp.
Procedure: (§1) Plots were 7.6 m long by 3.0 m wide with rows spaced 76 cm apart. Seeds were spaced 15 cm apart within the rows. The field was managed using conventional tillage practices. […] Wild radish was evaluated 14 and 28 days after application. […] Results are the means of the three replicates.

redroot pigweed (AMARE) = format: in vivo, Amaranthus retroflexus
Procedure: as §1

annual grasses (GGGAN) = format: in vivo, Gramineae
Procedure: as §1

corn (ZEAMD) = format: in vivo, Zea mays ssp. indentata; settings: hybrid Pioneer 36B10, corn (Zea mays ssp. indentata), in vivo, 62 days after application
Procedure: as §1

wild radish (RAPRA) = format: in vivo, Raphanus raphanistrum
Procedure: as §1

[1] = test system: Pennsylvania smartweed (POLPY); format: in vivo, Polygonum pensylvanicum
Procedure: as §1

jimsonweed (DATST) = format: in vivo, Datura stramonium
Procedure: as §1

CCOC(=O)c1nc(C2CC2)nc(N)c1Br [Compound 6, ethyl 6-amino-5-bromo-2-cyclopropyl-4-pyrimidinecarboxylate]
IPOSS Obs (morningglory (IPOSS); 14 DAA, 125 g a.i./ha): 93% | IPOSS Obs (morningglory (IPOSS); 14 DAA, 250 g a.i./ha): 100% | IPOSS Obs (morningglory (IPOSS); 14 DAA, 500 g a.i./ha): 100% | IPOSS Obs (morningglory (IPOSS); 28 DAA, 125 g a.i./ha): 93% | IPOSS Obs (morningglory (IPOSS); 28 DAA, 250 g a.i./ha): 100% | IPOSS Obs (morningglory (IPOSS); 28 DAA, 500 g a.i./ha): 100% | IPOSS Obs (morningglory (IPOSS); 62 DAA, 125 g a.i./ha): 100% | IPOSS Obs (morningglory (IPOSS); 62 DAA, 250 g a.i./ha): 100% | IPOSS Obs (morningglory (IPOSS); 62 DAA, 500 g a.i./ha): 100% | AMARE Obs (redroot pigweed (AMARE); 14 DAA, 125 g a.i./ha): 87% | AMARE Obs (redroot pigweed (AMARE); 14 DAA, 250 g a.i./ha): 98% | AMARE Obs (redroot pigweed (AMARE); 14 DAA, 500 g a.i./ha): 98% | AMARE Obs (redroot pigweed (AMARE); 28 DAA, 125 g a.i./ha): 82% | AMARE Obs (redroot pigweed (AMARE); 28 DAA, 250 g a.i./ha): 97% | AMARE Obs (redroot pigweed (AMARE); 28 DAA, 500 g a.i./ha): 98% | AMARE Obs (redroot pigweed (AMARE); 62 DAA, 125 g a.i./ha): 80% | AMARE Obs (redroot pigweed (AMARE); 62 DAA, 250 g a.i./ha): 70% | AMARE Obs (redroot pigweed (AMARE); 62 DAA, 500 g a.i./ha): 100% | GGGAN Obs (annual grasses (GGGAN); 14 DAA, 125 g a.i./ha): 7% | GGGAN Obs (annual grasses (GGGAN); 14 DAA, 250 g a.i./ha): 53% | GGGAN Obs (annual grasses (GGGAN); 14 DAA, 500 g a.i./ha): 63% | GGGAN Obs (annual grasses (GGGAN); 28 DAA, 125 g a.i./ha): 2% | GGGAN Obs (annual grasses (GGGAN); 28 DAA, 250 g a.i./ha): 35% | GGGAN Obs (annual grasses (GGGAN); 28 DAA, 500 g a.i./ha): 52% | GGGAN Obs (annual grasses (GGGAN); 62 DAA, 125 g a.i./ha): 90% | GGGAN Obs (annual grasses (GGGAN); 62 DAA, 250 g a.i./ha): 0% | GGGAN Obs (annual grasses (GGGAN); 62 DAA, 500 g a.i./ha): 0% | ZEAMD Obs (corn (ZEAMD)): 0% | RAPRA Obs (wild radish (RAPRA); 14 DAA, 125 g a.i./ha): 25% | RAPRA Obs (wild radish (RAPRA); 14 DAA, 250 g a.i./ha): 40% | RAPRA Obs (wild radish (RAPRA); 14 DAA, 500 g a.i./ha): 43% | RAPRA Obs (wild radish (RAPRA); 28 DAA, 125 g a.i./ha): 35% | RAPRA Obs (wild radish (RAPRA); 28 DAA, 250 g a.i./ha): 30% | RAPRA Obs (wild radish (RAPRA); 28 DAA, 500 g a.i./ha): 30% | POLPY Obs ([1]; 14 DAA, 125 g a.i./ha): 40% | POLPY Obs ([1]; 14 DAA, 250 g a.i./ha): 83% | POLPY Obs ([1]; 14 DAA, 500 g a.i./ha): 93% | POLPY Obs ([1]; 28 DAA, 125 g a.i./ha): 45% | POLPY Obs ([1]; 28 DAA, 250 g a.i./ha): 80% | POLPY Obs ([1]; 28 DAA, 500 g a.i./ha): 88% | POLPY Obs ([1]; 62 DAA, 125 g a.i./ha): 75% | POLPY Obs ([1]; 62 DAA, 250 g a.i./ha): 55% | POLPY Obs ([1]; 62 DAA, 500 g a.i./ha): 100% | DATST Obs (jimsonweed (DATST); 14 DAA, 125 g a.i./ha): 87% | DATST Obs (jimsonweed (DATST); 14 DAA, 250 g a.i./ha): 100% | DATST Obs (jimsonweed (DATST); 14 DAA, 500 g a.i./ha): 95% | DATST Obs (jimsonweed (DATST); 28 DAA, 125 g a.i./ha): 90% | DATST Obs (jimsonweed (DATST); 28 DAA, 250 g a.i./ha): 100% | DATST Obs (jimsonweed (DATST); 28 DAA, 500 g a.i./ha): 100% | DATST Obs (jimsonweed (DATST); 62 DAA, 125 g a.i./ha): 75% | DATST Obs (jimsonweed (DATST); 62 DAA, 250 g a.i./ha): 100% | DATST Obs (jimsonweed (DATST); 62 DAA, 500 g a.i./ha): 90%
